The text below walks through data of US12419963B2, “Diels-Alder conjugation methods” (priority 2020, dated 2025).

Usually IC50 stands for the midpoint of a concentration-inhibition curve. Higher therefore signals weaker potency in that assay.

The subject of one experiment is SKBR3 (Her2+) cells. Put plainly: In vitro cytotoxicity assay (CCK8 cell viability), SKBR3. The experiment is classed as cell-based. The procedure: (§1) In this Example, the ability of various antibody-drug conjugates and naked payloads to kill antigen-expressing tumor cells in vitro was assessed.
(§2) SKBR3 (Her2+) cells were seeded in 96 well plates at 8000 cells per well in complete growth media and grown overnight. For cell viability curves, serially diluted conjugates or naked payloads were added to the cells at final concentrations ranging from 100 nM to 5 pM and incubated for 3 days. NCI H929 and NCI H1975 (Her2−) cells were run as negative controls using similar conditions. To measure viability, cells were incubated with CCK8 (Dojindo) for the final 2 hours and the absorbance at 450 nm (OD450) was determined on a Victor (Perkin Elmer). Background OD450 levels determined from digitonin (40 nM) treated cells were subtracted from all wells and viability was expressed as a percentage of the untreated controls. IC50 values were determined from a four-parameter logistic equation over a 10-point response curve (GraphPad Prism). […] The interchain disulfide conjugates had similar IC50 values as the transglutaminase site-specific Diels-Alder conjugates. […] IC50 values are corrected for payload equivalents and the results of other transglutaminase site-specific Diels-Alder conjugates' cell viability are shown in Table 5. […]

For another experiment, the system named is NCI H929 (Her2−) cells. The experiment can be described thus: In vitro cytotoxicity assay (CCK8 cell viability), NCI H929 negative control. The experiment is classed as cell-based. How it is done: as §1, §2

Square brackets hold non-standard residues; d marks the D form. Peptide text beside a SMILES is read from it. * marks the point of attachment. Dolaproine = CO[C@@H]([C@@H]1CCCN1)[C@@H](C)C(=O)O; Dil = CC[C@H](C)[C@H](NC)[C@@H](CC(=O)O)OC; X1 = C[C@@H](N*)[C@H](O)c1ccccc1; NMeV = CN[C@H](C(=O)O)C(C)C

As to `CC[C@H](C)[C@@H]([C@@H](CC(=O)N1CCC[C@H]1[C@H](OC)[C@@H](C)C(=O)N[C@H](C)[C@H](O)c1ccccc1)OC)N(C)C(=O)[C@@H](NC(=O)[C@@H](NC)C(C)C)C(C)C` [MMAE, Monomethyl auristatin E] (H-[NMeV]V[Dil][Dolaproine]-X1), the IC50 was 0.031 nM in the experiment on SKBR3 (Her2+) cells (Homo sapiens, SK-BR-3, 72 h) and 0.209 nM in the experiment on NCI H929 (Her2−) cells (Homo sapiens, NCI-H929, 72 h). Also, the “% Kill” value in the experiment with SKBR3 (Her2+) cells (SK-BR-3 cells, 3 days incubation, CCK8) is given as 97.3%; in the experiment on NCI H929 (Her2−) cells (NCI H929 cells (HER2-), 3 days incubation, CCK8), 99.7%.
